# Laboratory results taken from ChEMBL document CHEMBL1201862, “PubChem BioAssay data set” (2004).
#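 These data come from cells grown in 96-well plates and exposed to compound for 48 hours at five concentrations. GI50: concentration for 50% inhibition of growth.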 The source made the active and inactive calls. Rule as the data show it: active = GI50 up to about 1.1 µM and inactive = higher.
# Tests used:
# Test in all cases: DTP human tumour cell line panel, 48 h
# HOP-62 = test system: HOP-62
# A498 = test system: A498
# HCC 2998 = test system: HCC 2998
# RPMI-8226 = test system: RPMI-8226
# RXF 393 = test system: RXF 393
# U-251 = test system: U-251
# NCI-H522 = test system: NCI-H522
# SK-MEL-2 = test system: SK-MEL-2
# HCT-116 = test system: HCT-116
# COLO 205 = test system: COLO 205
# SF-295 = test system: SF-295
# OVCAR-3 = test system: OVCAR-3
# SK-MEL-28 = test system: SK-MEL-28
# M19-MEL = test system: M19-MEL
# A549 = test system: A549
# NCI-H23 = test system: NCI-H23
# MDA-MB-435 = test system: MDA-MB-435
# SK-MEL-5 = test system: SK-MEL-5
# MDA-N = test system: MDA-N
# BT-549 = test system: BT-549
Structure (SMILES),GI50 (HOP-62),GI50 (A498),GI50 (HCC 2998),GI50 (RPMI-8226),GI50 (RXF 393),GI50 (U-251),GI50 (NCI-H522),GI50 (SK-MEL-2),GI50 (HCT-116),GI50 (COLO 205),GI50 (SF-295),GI50 (OVCAR-3),GI50 (SK-MEL-28),GI50 (M19-MEL),GI50 (A549),GI50 (NCI-H23),GI50 (MDA-MB-435),GI50 (SK-MEL-5),GI50 (MDA-N),GI50 (BT-549)
COC1OC(CBr)C(OC(=O)c2ccccc2)C(OS(=O)(=O)c2ccc(C)cc2)C1Br (stereo unspecified),> 100 µM (inactive),> 100 µM (inactive),> 100 µM (inactive),> 100 µM (inactive),> 100 µM (inactive),> 100 µM (inactive),> 100 µM (inactive),> 100 µM (inactive),> 100 µM (inactive),> 100 µM (inactive),> 100 µM (inactive),> 100 µM (inactive),> 100 µM (inactive),> 100 µM (inactive),> 100 µM (inactive),> 100 µM (inactive),,,,
CCCCCCCC(=O)O[C@H]1[C@H]2[C@@H](CC1(C)C)C(=O)[C@]13O[C@H]1C(=O)[C@]1(CO1)[C@]23C,17.5 µM (inactive),9.16 µM (inactive),5.96 µM (inactive),0.556 µM (active),2.22 µM (inactive),7.83 µM (inactive),1.3 µM (inactive),3.7 µM (inactive),,1.23 µM (inactive),15.8 µM (inactive),2.91 µM (inactive),3.38 µM (inactive),3.41 µM (inactive),30.6 µM (inactive),3.46 µM (inactive),24.2 µM (inactive),4.06 µM (inactive),8.95 µM (inactive),15.5 µM (inactive)
Nc1nc(O)c2nc(N)n(Cc3ccccc3)c2n1,> 100 µM (inactive),> 100 µM (inactive),> 100 µM (inactive),> 100 µM (inactive),> 100 µM (inactive),> 100 µM (inactive),> 100 µM (inactive),> 100 µM (inactive),> 100 µM (inactive),> 100 µM (inactive),> 100 µM (inactive),> 100 µM (inactive),> 100 µM (inactive),> 100 µM (inactive),> 100 µM (inactive),> 100 µM (inactive),,> 100 µM (inactive),,
COc1ccc(S(=O)(=O)Nc2ccccc2C(=O)O)cc1,,> 100 µM (inactive),> 100 µM (inactive),> 100 µM (inactive),> 100 µM (inactive),> 100 µM (inactive),> 100 µM (inactive),> 100 µM (inactive),,> 100 µM (inactive),> 100 µM (inactive),> 100 µM (inactive),> 100 µM (inactive),> 100 µM (inactive),> 100 µM (inactive),> 100 µM (inactive),,> 100 µM (inactive),,
CCCCCCCCCCCCCCCCc1c(O)nc(NN)nc1C(=O)OC,> 50 µM (inactive),> 50 µM (inactive),> 50 µM (inactive),> 50 µM (inactive),> 50 µM (inactive),> 50 µM (inactive),> 50 µM (inactive),> 50 µM (inactive),> 50 µM (inactive),> 50 µM (inactive),> 50 µM (inactive),> 50 µM (inactive),> 50 µM (inactive),> 50 µM (inactive),> 50 µM (inactive),> 50 µM (inactive),,> 50 µM (inactive),,
Cc1ccc(-c2cc(-c3ccccc3)c(C#N)c(=O)[nH]2)cc1,> 100 µM (inactive),> 100 µM (inactive),> 100 µM (inactive),> 100 µM (inactive),> 100 µM (inactive),> 100 µM (inactive),> 100 µM (inactive),,> 100 µM (inactive),> 100 µM (inactive),> 100 µM (inactive),> 100 µM (inactive),> 100 µM (inactive),> 100 µM (inactive),> 100 µM (inactive),> 100 µM (inactive),,> 100 µM (inactive),,
N/C(=N\O)N/N=C/c1cccc(F)c1,26.9 µM (inactive),40 µM (inactive),84.9 µM (inactive),39 µM (inactive),24.8 µM (inactive),36.1 µM (inactive),29.5 µM (inactive),67.8 µM (inactive),41.6 µM (inactive),36.3 µM (inactive),37.8 µM (inactive),75.2 µM (inactive),> 100 µM (inactive),48.3 µM (inactive),31.7 µM (inactive),39 µM (inactive),,14.8 µM (inactive),,
Cc1nc2c(C)c3c([nH]c4ccc(Cl)cc43)c(C)c2c(O)c1C,4.23 µM (inactive),15.3 µM (inactive),6.46 µM (inactive),3.3 µM (inactive),,5.73 µM (inactive),4.16 µM (inactive),65.2 µM (inactive),4.29 µM (inactive),5.53 µM (inactive),5.89 µM (inactive),7.94 µM (inactive),10.8 µM (inactive),6.18 µM (inactive),2.82 µM (inactive),4.68 µM (inactive),6.34 µM (inactive),11.8 µM (inactive),6.73 µM (inactive),14.9 µM (inactive)
